Measurements as given in ChEMBL document CHEMBL1201862, “PubChem BioAssay data set” (2004).
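Each compound was tested at five concentrations against cells in 96-well plates for 48 hours. At the GI50, growth is halved.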 Activity calls are given as the source filed them. Cut-off read from the data, not from the text of the source: active = GI50 up to about 1.1 µM and inactive = higher.

How the values were obtained:
Experiment in all cases: NCI-60 cell line screen, 48 h
K562 = tested on: K562
RPMI-8226 = tested on: RPMI-8226
HOP-92 = tested on: HOP-92
ACHN = tested on: ACHN
SNB-19 = tested on: SNB-19
HCC 2998 = tested on: HCC 2998
OVCAR-4 = tested on: OVCAR-4
HOP-62 = tested on: HOP-62
U-251 = tested on: U-251
TK-10 = tested on: TK-10
SK-MEL-5 = tested on: SK-MEL-5
HL-60 = tested on: HL-60
NCI-H460 = tested on: NCI-H460
SF-539 = tested on: SF-539
RXF 393 = tested on: RXF 393
SF-295 = tested on: SF-295

Measured: GI50

N#C/C(c1nc2ccccc2[nH]1)=c1\s/c(=C/c2ccccc2)c(=O)n1-c1ccccc1
inactive: K562 > 100 µM | RPMI-8226 > 100 µM | HOP-92 > 100 µM | ACHN > 100 µM | SNB-19 > 100 µM | HCC 2998 > 100 µM | OVCAR-4 > 100 µM | HOP-62 > 100 µM | U-251 > 100 µM | TK-10 > 100 µM | SK-MEL-5 81.8 µM | HL-60 > 100 µM | NCI-H460 65.2 µM | SF-539 > 100 µM

COC(=O)C(CC(=O)Nc1ccc(C)cc1)C(=O)C(=O)Nc1ccccc1C(C)C (stereo not given)
inactive: K562 > 100 µM | RPMI-8226 62.4 µM | HOP-92 > 100 µM | ACHN > 100 µM | SNB-19 > 100 µM | HCC 2998 > 100 µM | OVCAR-4 > 100 µM | HOP-62 > 100 µM | RXF 393 > 100 µM | U-251 > 100 µM | TK-10 > 100 µM | SK-MEL-5 > 100 µM | HL-60 > 100 µM | NCI-H460 > 100 µM | SF-295 > 100 µM | SF-539 > 100 µM

CCC(C)(C)NS(=O)(=O)c1ccccc1
inactive: K562 > 100 µM | RPMI-8226 > 100 µM | ACHN > 100 µM | HCC 2998 > 100 µM | OVCAR-4 > 100 µM | HOP-62 > 100 µM | RXF 393 > 100 µM | U-251 > 100 µM | TK-10 > 100 µM | SK-MEL-5 > 100 µM | HL-60 > 100 µM | NCI-H460 > 100 µM | SF-295 > 100 µM | SF-539 > 100 µM

N#C/N=C(\NCCc1c[nH]c2ccccc12)NCc1ccccc1
inactive: K562 42.8 µM | RPMI-8226 42.6 µM | ACHN 25.4 µM | SNB-19 68.9 µM | HCC 2998 32.5 µM | OVCAR-4 61.4 µM | HOP-62 > 100 µM | RXF 393 > 100 µM | U-251 35.2 µM | TK-10 98.4 µM | SK-MEL-5 24.4 µM | HL-60 27.5 µM | NCI-H460 26.8 µM | SF-295 36 µM | SF-539 > 100 µM

COc1ccc(NC(=O)C(=O)C2NC(=S)NC2=O)c(OC)c1 (stereo not given)
inactive: K562 > 100 µM | RPMI-8226 > 100 µM | HOP-92 > 100 µM | ACHN > 100 µM | SNB-19 > 100 µM | HCC 2998 > 100 µM | OVCAR-4 > 100 µM | HOP-62 > 100 µM | RXF 393 > 100 µM | U-251 > 100 µM | TK-10 > 100 µM | HL-60 > 100 µM | NCI-H460 > 100 µM | SF-295 > 100 µM | SF-539 > 100 µM

CCCCCCCCCCNC(=S)OCCCC
inactive: K562 18.5 µM | RPMI-8226 17.1 µM | HOP-92 16.7 µM | ACHN 28.1 µM | SNB-19 46.8 µM | HCC 2998 24.6 µM | OVCAR-4 34 µM | HOP-62 27.2 µM | RXF 393 34.9 µM | U-251 19.5 µM | TK-10 14.7 µM | SK-MEL-5 18 µM | HL-60 14.3 µM | NCI-H460 21.9 µM | SF-295 45.4 µM | SF-539 21.7 µM

C[C@]12CCCC(=O)C1C[C@H](C(=O)O)CC2 (stereo not given in full)
inactive: K562 > 100 µM | RPMI-8226 > 100 µM | HOP-92 > 100 µM | ACHN > 100 µM | SNB-19 > 100 µM | HCC 2998 > 100 µM | OVCAR-4 > 100 µM | HOP-62 > 100 µM | U-251 > 100 µM | TK-10 > 100 µM | HL-60 > 100 µM | NCI-H460 > 100 µM | SF-295 > 100 µM | SF-539 > 100 µM

CCCC(OCC)(OCC)OCC
inactive: K562 > 100 µM | RPMI-8226 > 100 µM | HOP-92 > 100 µM | ACHN > 100 µM | SNB-19 > 100 µM | HCC 2998 > 100 µM | OVCAR-4 > 100 µM | HOP-62 > 100 µM | RXF 393 > 100 µM | U-251 > 100 µM | TK-10 > 100 µM | SK-MEL-5 > 100 µM | HL-60 > 100 µM | NCI-H460 > 100 µM | SF-295 > 100 µM | SF-539 > 100 µM

O=[N+]([O-])c1ccc(OCCNc2cccc3ccccc23)cc1
inactive: K562 18.6 µM | RPMI-8226 24.7 µM | HOP-92 94.2 µM | ACHN > 100 µM | SNB-19 > 100 µM | HCC 2998 64.6 µM | OVCAR-4 > 100 µM | HOP-62 > 100 µM | U-251 94.6 µM | TK-10 > 100 µM | SK-MEL-5 30.5 µM | NCI-H460 77.6 µM | SF-295 > 100 µM | SF-539 > 100 µM

Cc1cc2nc3c(C(OC4OC(CO)C(O)C(O)C4O)C(O)CO)nn(-c4ccccc4)c3nc2cc1C (stereo not given)
inactive: K562 > 100 µM | RPMI-8226 > 100 µM | ACHN > 100 µM | SNB-19 > 100 µM | HCC 2998 > 100 µM | OVCAR-4 > 100 µM | HOP-62 > 100 µM | RXF 393 > 100 µM | U-251 > 100 µM | TK-10 > 100 µM | NCI-H460 > 100 µM | SF-295 > 100 µM | SF-539 > 100 µM

O=c1c(O)cccn1C1OC(CO)C(O)C1O (stereo not given)
inactive: K562 > 100 µM | RPMI-8226 > 100 µM | HOP-92 > 100 µM | ACHN > 100 µM | SNB-19 > 100 µM | HCC 2998 > 100 µM | OVCAR-4 > 100 µM | RXF 393 > 100 µM | U-251 > 100 µM | TK-10 > 100 µM | NCI-H460 > 100 µM

Cc1ccnc(NS(=O)(=O)c2ccc(NC3=CC(=O)C(=O)c4ccccc43)cc2)n1
inactive: K562 > 100 µM | ACHN > 100 µM | SNB-19 > 100 µM | HCC 2998 > 100 µM | OVCAR-4 > 100 µM | HOP-62 > 100 µM | RXF 393 > 100 µM | U-251 > 100 µM | TK-10 > 100 µM | SK-MEL-5 > 100 µM | HL-60 > 100 µM | NCI-H460 > 100 µM | SF-295 > 100 µM | SF-539 > 100 µM

O=C(c1cccs1)N(C(=S)N1CCN(c2ccccn2)CC1)C1CCCCC1
inactive: K562 47 µM | RPMI-8226 43.1 µM | HOP-92 66.2 µM | ACHN 69.2 µM | SNB-19 > 100 µM | OVCAR-4 > 100 µM | HOP-62 > 100 µM | RXF 393 22.5 µM | U-251 79.1 µM | TK-10 > 100 µM | SK-MEL-5 31.3 µM | HL-60 > 100 µM | NCI-H460 54.6 µM | SF-295 > 100 µM | SF-539 > 100 µM

Cc1cc(O)c2c(c1)OC1(C)CCC3C(C)(C)CCCC34COC2C14 (stereo not given)
inactive: K562 20.8 µM | RPMI-8226 > 10 µM | ACHN 12.7 µM | SNB-19 18.3 µM | HCC 2998 14.7 µM | OVCAR-4 18.6 µM | HOP-62 14.1 µM | SK-MEL-5 14.4 µM | HL-60 16.6 µM | NCI-H460 16.4 µM | SF-295 15.1 µM | SF-539 6.43 µM

CC(=O)OC1CC2C(C)(C)C(=O)C=C[C@]2(C)C2CCC3(C)C(c4ccoc4)C(=O)[C@H]4O[C@]43[C@]12C (stereo not given in full)
inactive: K562 15.6 µM | RPMI-8226 15.9 µM | HOP-92 12.6 µM | ACHN 17.9 µM | SNB-19 23.3 µM | HCC 2998 17.1 µM | OVCAR-4 22.3 µM | HOP-62 22.6 µM | RXF 393 19.1 µM | U-251 18.6 µM | TK-10 31.6 µM | SK-MEL-5 17.7 µM | HL-60 20.2 µM | NCI-H460 17.4 µM | SF-539 20 µM

COc1ccc(-c2cc(-c3cc(C)ccc3O)nc(O)n2)cc1
inactive: K562 > 100 µM | RPMI-8226 > 100 µM | HOP-92 32.6 µM | ACHN 42.8 µM | SNB-19 47 µM | HCC 2998 > 100 µM | OVCAR-4 > 100 µM | HOP-62 22.6 µM | RXF 393 32.6 µM | U-251 30.7 µM | TK-10 40.8 µM | HL-60 > 100 µM | NCI-H460 > 100 µM | SF-295 41 µM | SF-539 30.1 µM

CSC1(C)CC2C(CC1N1CCOCC1)C2(C)C (stereo not given)
inactive: K562 > 100 µM | RPMI-8226 > 100 µM | HOP-92 78.2 µM | ACHN > 100 µM | HCC 2998 > 100 µM | OVCAR-4 > 100 µM | U-251 > 100 µM | TK-10 > 100 µM | SK-MEL-5 > 100 µM | HL-60 > 100 µM | NCI-H460 > 100 µM | SF-295 > 100 µM | SF-539 > 100 µM

CC(=O)Oc1cc(C)c2c(c1OC(C)=O)CC1(O2)[C@@H](C)CCC2[C@@]3(C)CC[C@H](OC(C)=O)C(C)(C)C3CC[C@]21C (stereo not given in full)
inactive: RPMI-8226 3.83 µM | HOP-92 3.14 µM | ACHN 1.67 µM | SNB-19 7.31 µM | HCC 2998 5.42 µM | OVCAR-4 > 10 µM | HOP-62 2.65 µM | RXF 393 1.26 µM | U-251 3.33 µM | TK-10 3.61 µM | SK-MEL-5 3.1 µM | NCI-H460 3.45 µM | SF-295 5.01 µM | SF-539 2.81 µM

O=C(CSc1nnc(Cc2ccccc2)o1)Nc1ccccc1Cl
inactive: K562 > 100 µM | RPMI-8226 > 100 µM | ACHN > 100 µM | SNB-19 > 100 µM | HCC 2998 > 100 µM | OVCAR-4 > 100 µM | HOP-62 > 100 µM | U-251 > 100 µM | TK-10 > 100 µM | SK-MEL-5 > 100 µM | HL-60 > 100 µM | NCI-H460 > 100 µM | SF-295 > 100 µM | SF-539 > 100 µM
